Laboratory results taken from the OPERA property sets (Mansouri et al. 2018).
Values after ≈ are worked out from the molar mass of the structure shown.

Details: not given

Compound	solubility [mM]
c1ccc(N=NNc2ccccc2)cc1	2.54 (≈ 500 µg/mL)
Cc1ccc(C(=O)O)cc1C	0.86 (≈ 129 µg/mL)
c1ccc2c3c(ccc2c1)-c1cccc2cccc-3c12	9.91e-06 (≈ 0.0025 µg/mL)
CNC(=O)Oc1cccc(N=CN(C)C)c1	4.52 (≈ 1000 µg/mL)
COc1cc(NS(=O)(=O)c2ccc(N)cc2)nc(OC)n1	1.11 (≈ 343 µg/mL)
CC(=O)Oc1c(C(C)(C)C)cc([N+](=O)[O-])c(C)c1[N+](=O)[O-]	0.0338 (≈ 10 µg/mL)
S=c1[nH]cnc2[nH]cnc12	450 (≈ 68500 µg/mL)
CC1=C(C(=O)O)N2C(=O)[C@@H](NC(=O)[C@H](N)C3=CCC=CC3)[C@H]2SC1	61 (≈ 21300 µg/mL)
CCCCOc1ccc(C(=O)OCCN(CC)CC)cc1	0.13 (≈ 38.1 µg/mL)
Nc1ccc(O)c2c1C(=O)c1ccccc1C2=O	0.15 (≈ 35.9 µg/mL)

Same assay, conditions: 20 °C

Compound	solubility [mM]
Clc1ccc(-c2ccccc2Cl)cc1Cl	0.000516 (≈ 0.133 µg/mL)
COC(=O)c1ccc(OC)cc1	3.87 (≈ 643 µg/mL)
C=CCOC(=O)c1ccccc1C(=O)OCC=C	0.739 (≈ 182 µg/mL)
Clc1ccc(-c2cc(Cl)c(Cl)cc2Cl)cc1Cl	4.1e-05 (≈ 0.0134 µg/mL)
Clc1ccc(-c2cccc(Cl)c2Cl)c(Cl)c1	0.000208 (≈ 0.0608 µg/mL)
O=[N+]([O-])c1cc(Cl)c(Cl)cc1Cl	0.13 (≈ 29.4 µg/mL)
CCCCOC(=O)CCC	3.47 (≈ 500 µg/mL)
CN(C)C(=O)NC1CCCCCCC1	6.05 (≈ 1200 µg/mL)
Clc1ccc(-c2ccc(Cl)c(Cl)c2)cc1	0.000279 (≈ 0.0719 µg/mL)
CC(C)(S)[C@@H](N)C(=O)O	744 (≈ 111000 µg/mL)
CCCCC(C)(C)CCC	0.0155 (≈ 2.2 µg/mL)
CCC(Cl)(Cl)[N+](=O)[O-]	31.7 (≈ 5000 µg/mL)
CC(=O)CC1CCCCN1 (centres undefined)	354 (≈ 50000 µg/mL)
CCC(Cl)[N+](=O)[O-] (centres undefined)	64.8 (≈ 8000 µg/mL)
CC(=NO)C(C)=NO	5.17 (≈ 600 µg/mL)
Cc1ccccc1OCC(O)CO (centres undefined)	64.8 (≈ 11800 µg/mL)
O=c1ccc2ccccc2o1	13 (≈ 1900 µg/mL)
CCOC(=O)CC	188 (≈ 19200 µg/mL)
C[C@H](CCC(=O)O)[C@H]1CC[C@H]2[C@@H]3[C@@H](O)C[C@@H]4C[C@H](O)CC[C@]4(C)[C@H]3CC[C@]12C	0.108 (≈ 42.4 µg/mL)
COC(=O)c1cc(Cl)cc(N)c1Cl	0.545 (≈ 120 µg/mL)
O=c1ccc2ccccc2[nH]1	7.25 (≈ 1050 µg/mL)

Compound	solubility [mM]
O=c1cc(O)cc[nH]1	56.3 (≈ 6250 µg/mL)
CCOP(=O)(OCC)SCC(=O)NC(C)(C)C#N	238 (≈ 70000 µg/mL)
CCc1ccccc1CC	0.53 (≈ 71.1 µg/mL)
CCCCI	1.1 (≈ 202 µg/mL)
O=Cc1ccc2c(c1)OCO2	23.3 (≈ 3500 µg/mL)
C[C@@H]1CN[C@@H](C)CN1	3060 (≈ 350000 µg/mL)
CC(C)C1=CC2=CC[C@@H]3[C@](C)(CCC[C@@]3(C)C(=O)O)[C@H]2CC1	0.16 (≈ 48.4 µg/mL)
O=C(O)CCc1ccccc1	39.3 (≈ 5900 µg/mL)
CCNc1nc(NC(C)(C)C)nc(OC)n1	0.577 (≈ 130 µg/mL)
OCCCCl	2640 (≈ 250000 µg/mL)
Clc1ccc2c(c1)Oc1cc(Cl)c(Cl)c(Cl)c1O2	1.34e-06 (≈ 0.00043 µg/mL)
CCOP(=S)(OCC)OP(=S)(OCC)OCC	0.0931 (≈ 30 µg/mL)
CC(C)I	8.24 (≈ 1400 µg/mL)
O=c1[nH]c(=O)c2[nH]c(=O)[nH]c2[nH]1	0.353 (≈ 59.3 µg/mL)
Clc1ccc(Cl)c(-c2cc(Cl)c(Cl)c(Cl)c2Cl)c1	2.09e-05 (≈ 0.00755 µg/mL)
N[C@@H](CSSC[C@H](N)C(=O)O)C(=O)O	0.791 (≈ 190 µg/mL)
CCCC1(CCC)C(=O)NC(=O)NC1=O	2.83 (≈ 600 µg/mL)
CCCCOC(=O)CC	11.5 (≈ 1500 µg/mL)
O=[N+]([O-])c1c(O)ccc2ccccc12	1.06 (≈ 200 µg/mL)
Clc1cc(Cl)c(-c2c(Cl)cc(Cl)c(Cl)c2Cl)cc1Cl	1.24e-05 (≈ 0.0049 µg/mL)
Clc1ccc(-c2cc(Cl)c(Cl)c(Cl)c2Cl)cc1Cl	1.48e-05 (≈ 0.00533 µg/mL)

Same assay, conditions: 21 °C

Compound	solubility [mM]
C=C1c2cccc(O)c2C(=O)C2=C(O)[C@]3(O)C(=O)C(C(N)=O)=C(O)[C@@H](N(C)C)[C@@H]3[C@@H](O)[C@H]12	17.1 (≈ 7550 µg/mL)
O=C(O)CCCCCCCCCC(=O)O	23.6 (≈ 5100 µg/mL)

Same assay, conditions: 22 °C

Compound	solubility [mM]
O=C(O)[C@@H](O)[C@H](O)[C@H](O)[C@@H](O)C(=O)O	229 (≈ 48000 µg/mL)
OCc1ccccc1O	507 (≈ 63000 µg/mL)
COC(=O)NS(=O)(=O)c1ccc(N)cc1	21.7 (≈ 5000 µg/mL)
Cc1ccccc1Oc1cccnn1	10.7 (≈ 2000 µg/mL)

Same assay, conditions: 23 °C

Compound	solubility [mM]
NC(=O)CC(N)C(=O)O (centres undefined)	172 (≈ 22700 µg/mL)
CCCC(C)(C)C(=O)Nc1ccc(Cl)cc1	0.0951 (≈ 22.8 µg/mL)

Same assay, conditions: 24 °C

Compound	solubility [mM]
CC(=O)OCCN1CCN(CCCN2c3ccccc3Sc3ccc(Cl)cc32)CC1	0.02 (≈ 8.92 µg/mL)

Same assay, conditions: 25 °C

Compound	solubility [mM]
Ic1cccc2ccccc12	0.0282 (≈ 7.16 µg/mL)
C[C@@H](O)C(N)=O	8780 (≈ 782000 µg/mL)
CCC#CC(C)C	1.8 (≈ 173 µg/mL)
Cc1ccnc2c1ccc1c(C)ccnc12	0.107 (≈ 22.4 µg/mL)
CCC(C)(C)C	0.214 (≈ 18.4 µg/mL)
CC(C)CC(C)(C)C	0.0196 (≈ 2.24 µg/mL)
c1ccc2c(c1)Nc1ccccc1S2	0.00798 (≈ 1.59 µg/mL)
COP(=S)(OC)SCCSC(C)C	0.373 (≈ 97 µg/mL)
C(=C\c1ccccc1)/c1ccccc1	0.00161 (≈ 0.291 µg/mL)
Clc1cc(Cl)c(Cl)c(Cl)c1	0.0236 (≈ 5.1 µg/mL)
COc1c2occc2c(OC)c2c(=O)cc(C)oc12	4 (≈ 1040 µg/mL)
C#CCCCCCC#C	1.04 (≈ 125 µg/mL)
O=[N+]([O-])c1ccccc1O	18 (≈ 2500 µg/mL)
Cc1ccc(S(N)(=O)=O)cc1	18.4 (≈ 3160 µg/mL)
Clc1ccc(-c2c(Cl)cc(Cl)cc2Cl)cc1	0.000312 (≈ 0.0911 µg/mL)
NC(=O)c1ccccc1O	15 (≈ 2060 µg/mL)
Cc1ccc(C)c2c(C)cccc12	0.0123 (≈ 2.1 µg/mL)
CC(=O)Oc1ccccc1C(=O)O	25.5 (≈ 4600 µg/mL)
